The source made the active and inactive calls. The rule behind the calls is not given here. Non-standard residues stand in square brackets, D forms with d. Residues, ends and D or L forms follow the SMILES beside them. ξ: configuration not given here. ξhPhe = NC(CCc1ccccc1)C(=O)O; ξ2Thi = NC(Cc1cccs1)C(=O)O; ξNle = CCCCC(N)C(=O)O
Tests used:
[1] = biological target: Glucagon-like peptide 1 receptor (Homo sapiens, UniProt P43220); test: Agonist activity at human GLP1R expressed in HEK293 cells after 5 hrs by luciferase reporter gene assay; type: cell-based
Sequence of Glucagon-like peptide 1 receptor (P43220 whole entry): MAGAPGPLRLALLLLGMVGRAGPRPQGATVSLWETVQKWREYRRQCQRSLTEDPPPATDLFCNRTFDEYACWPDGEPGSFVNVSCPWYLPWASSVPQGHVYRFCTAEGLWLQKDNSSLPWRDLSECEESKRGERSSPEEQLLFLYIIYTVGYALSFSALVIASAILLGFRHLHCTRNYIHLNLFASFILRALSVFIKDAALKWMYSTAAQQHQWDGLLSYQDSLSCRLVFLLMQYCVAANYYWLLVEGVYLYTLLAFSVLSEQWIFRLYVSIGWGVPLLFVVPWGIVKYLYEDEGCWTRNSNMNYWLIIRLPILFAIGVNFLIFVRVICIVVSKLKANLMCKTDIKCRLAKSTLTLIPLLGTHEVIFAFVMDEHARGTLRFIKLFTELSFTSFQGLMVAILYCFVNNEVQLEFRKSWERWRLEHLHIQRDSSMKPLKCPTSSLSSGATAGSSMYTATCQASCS

[2] = Protein binding in rat plasma at 200 to 1000 ng/ml incubated for 15 mins by LC/MS/MS based ultracentrifugation method; type: ADME, cell-free; conditions: read-out: PPB (converted)
[3] = biological target: T1, Glucagon-like peptide 2 receptor (Homo sapiens, UniProt O95838); test: Agonist activity at human GLP2R expressed in HEK293 cells after 5 hrs by luciferase reporter gene assay; type: cell-based
T1 sequence (O95838 whole entry): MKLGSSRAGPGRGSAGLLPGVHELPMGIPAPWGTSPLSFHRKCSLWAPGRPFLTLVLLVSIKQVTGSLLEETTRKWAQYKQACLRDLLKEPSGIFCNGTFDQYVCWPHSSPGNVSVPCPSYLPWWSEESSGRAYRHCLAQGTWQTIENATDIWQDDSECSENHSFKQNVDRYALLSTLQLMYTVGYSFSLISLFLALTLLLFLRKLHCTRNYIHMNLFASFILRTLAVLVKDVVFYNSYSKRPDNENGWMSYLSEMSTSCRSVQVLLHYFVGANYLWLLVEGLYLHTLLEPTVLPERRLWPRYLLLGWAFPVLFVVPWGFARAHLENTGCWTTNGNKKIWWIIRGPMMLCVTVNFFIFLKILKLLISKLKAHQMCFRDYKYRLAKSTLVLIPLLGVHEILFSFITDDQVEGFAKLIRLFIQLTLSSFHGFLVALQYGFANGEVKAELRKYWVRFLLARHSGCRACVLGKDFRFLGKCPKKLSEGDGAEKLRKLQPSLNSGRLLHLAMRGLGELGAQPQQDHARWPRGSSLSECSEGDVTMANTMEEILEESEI

HEK293 = test: Selectivity ratio of EC50 for human GLP1R expressed in HEK293 cells to EC50 for human GLP2R expressed in HEK293; type: cell-based
[4] = biological target: Glucagon receptor (Homo sapiens) (UniProt P47871); test: Agonist activity at human GCGR expressed in HEK293 cells up to 1000 nM after 5 hrs by luciferase reporter gene assay; type: cell-based
Sequence of Glucagon receptor (Homo sapiens) (P47871 whole entry): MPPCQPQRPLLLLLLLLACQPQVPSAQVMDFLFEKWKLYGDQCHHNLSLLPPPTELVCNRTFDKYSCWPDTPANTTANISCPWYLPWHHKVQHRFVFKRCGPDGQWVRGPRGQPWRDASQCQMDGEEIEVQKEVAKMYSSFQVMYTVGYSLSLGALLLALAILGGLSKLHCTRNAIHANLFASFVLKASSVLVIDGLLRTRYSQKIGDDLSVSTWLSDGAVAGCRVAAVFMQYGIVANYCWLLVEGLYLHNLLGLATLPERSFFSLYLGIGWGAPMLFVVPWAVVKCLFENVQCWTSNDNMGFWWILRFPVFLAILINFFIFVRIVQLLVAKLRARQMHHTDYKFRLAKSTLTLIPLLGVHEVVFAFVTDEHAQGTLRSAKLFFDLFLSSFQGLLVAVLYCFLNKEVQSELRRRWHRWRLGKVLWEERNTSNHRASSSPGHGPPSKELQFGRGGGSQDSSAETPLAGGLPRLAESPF

[5] = Systemic clearance in Sprague-Dawley rat at 0.2 mg/kg, iv through cassette dosing measured up to 300 mins by LC/MS/MS analysis; type: ADME, organism-based; conditions: in vivo

## CCCC[C@H](NC(=O)[C@H](CCC(=O)O)NC(=O)[C@H](CC(=O)O)NC(=O)[C@H](CO)NC(=O)[C@H](Cc1ccccc1)NC(=O)[C@H](CO)NC(=O)CNC(=O)[C@H](CC(=O)O)NC(=O)CNC(=O)[C@@H](N)Cc1cnc[nH]1)C(=O)N[C@H](Cc1ccccc1)C(=O)N[C@H](C(=O)N[C@H](C(=O)N[C@@H](CC(C)C)C(=O)N[C@@H](CC(=O)O)C(=O)N[C@@H](CC(C)C)C(=O)N[C@@H](CC(C)C)C(=O)N[C@@H](C)C(=O)N[C@@H](C)C(=O)N[C@@H](CCCNC(=N)N)C(=O)N[C@@H](CC(=O)O)C(=O)N[C@@H](Cc1ccccc1)C(=O)N[C@H](C(=O)N[C@@H](CC(N)=O)C(=O)N[C@@H](Cc1c[nH]c2ccccc12)C(=O)N[C@@H](CC(C)C)C(=O)N[C@H](C(=O)N[C@@H](CCC(N)=O)C(=O)N[C@H](C(=O)N[C@@H](CCCCN)C(N)=O)[C@@H](C)O)[C@@H](C)CC)[C@@H](C)CC)[C@@H](C)CC)[C@@H](C)O
[1]
  EC50: > 1000 nM
[2]
  fraction unbound at 0.25 h: 0.024
[3]
  EC50: 0.08 nM

## CCCCC(NC(=O)[C@H](CCC(=O)O)NC(=O)[C@H](CC(=O)O)NC(=O)[C@H](CO)NC(=O)[C@H](Cc1ccccc1)NC(=O)[C@H](CO)NC(=O)CNC(=O)[C@H](CC(=O)O)NC(=O)CNC(=O)[C@@H](N)Cc1cnc[nH]1)C(=O)N[C@@H](CC(N)=O)C(=O)N[C@H](C(=O)N[C@H](C(=O)N[C@@H](CC(C)C)C(=O)N[C@@H](CC(=O)O)C(=O)NC(CCc1ccccc1)C(=O)N[C@@H](CC(C)C)C(=O)N[C@@H](C)C(=O)N[C@@H](C)C(=O)N[C@@H](CCCNC(=N)N)C(=O)N[C@@H](CC(=O)O)C(=O)N[C@@H](Cc1ccccc1)C(=O)N[C@H](C(=O)N[C@@H](CC(N)=O)C(=O)N[C@@H](Cc1c[nH]c2ccccc12)C(=O)N[C@@H](CC(C)C)C(=O)N[C@H](C(=O)N[C@@H](CCC(N)=O)C(=O)N[C@H](C(=O)N[C@@H](CCCCN)C(N)=O)[C@@H](C)O)[C@@H](C)CC)[C@@H](C)CC)[C@@H](C)CC)[C@@H](C)O (stereo not given in full) (H-HGDGSFSDE[ξNle]NTILD[ξhPhe]LAARDFINWLIQTK-NH2)
HEK293
  Ratio EC50: > 9000
[4]
  Activity: inactive
[5]
  clearance: 0.44 mL/min/kg
[1]
  EC50: > 1000 nM
[3]
  EC50: 0.11 nM

## CCCCC(NC(=O)[C@H](CCC(=O)O)NC(=O)[C@H](CC(=O)O)NC(=O)[C@H](CO)NC(=O)[C@H](Cc1ccccc1)NC(=O)[C@H](CO)NC(=O)CNC(=O)[C@H](CC(=O)O)NC(=O)CNC(=O)[C@@H](N)Cc1cnc[nH]1)C(=O)N[C@@H](CC(N)=O)C(=O)N[C@H](C(=O)N[C@H](C(=O)N[C@@H](CC(C)C)C(=O)N[C@@H](CC(=O)O)C(=O)N[C@@H](Cc1c[nH]c2ccccc12)C(=O)N[C@@H](CC(C)C)C(=O)N[C@@H](C)C(=O)N[C@@H](C)C(=O)N[C@@H](CCCNC(=N)N)C(=O)N[C@@H](CC(=O)O)C(=O)N[C@@H](Cc1ccccc1)C(=O)N[C@H](C(=O)N[C@@H](CC(N)=O)C(=O)N[C@@H](Cc1c[nH]c2ccccc12)C(=O)N[C@@H](CC(C)C)C(=O)N[C@H](C(=O)N[C@@H](CCC(N)=O)C(=O)N[C@H](C(=O)N[C@@H](CCCCN)C(N)=O)[C@@H](C)O)[C@@H](C)CC)[C@@H](C)CC)[C@@H](C)CC)[C@@H](C)O (stereo not given in full) (H-HGDGSFSDE[ξNle]NTILDWLAARDFINWLIQTK-NH2)
HEK293
  Ratio EC50: > 6600
[4]
  Activity: inactive
[5]
  clearance: 0.5 mL/min/kg
[1]
  EC50: > 1000 nM
[3]
  EC50: 0.15 nM

## CCCCC(NC(=O)[C@H](CCC(=O)O)NC(=O)[C@H](CC(=O)O)NC(=O)[C@H](CO)NC(=O)[C@H](Cc1ccccc1)NC(=O)[C@H](CO)NC(=O)CNC(=O)[C@H](CC(=O)O)NC(=O)CNC(=O)[C@@H](N)Cc1cnc[nH]1)C(=O)N[C@@H](CC(N)=O)C(=O)N[C@H](C(=O)N[C@H](C(=O)N[C@@H](CC(C)C)C(=O)N[C@@H](CC(=O)O)C(=O)N[C@@H](Cc1ccccc1)C(=O)N[C@@H](CC(C)C)C(=O)N[C@@H](C)C(=O)N[C@@H](C)C(=O)N[C@@H](CCCNC(=N)N)C(=O)N[C@@H](CC(=O)O)C(=O)N[C@@H](Cc1ccccc1)C(=O)N[C@H](C(=O)N[C@@H](CC(N)=O)C(=O)N[C@@H](Cc1c[nH]c2ccccc12)C(=O)N[C@@H](CC(C)C)C(=O)N[C@H](C(=O)N[C@@H](CCC(N)=O)C(=O)N[C@H](C(=O)N[C@@H](CCCCN)C(N)=O)[C@@H](C)O)[C@@H](C)CC)[C@@H](C)CC)[C@@H](C)CC)[C@@H](C)O (stereo not given in full) (H-HGDGSFSDE[ξNle]NTILDFLAARDFINWLIQTK-NH2)
HEK293
  Ratio EC50: > 7100
[4]
  Activity: inactive
[5]
  clearance: 5.9 mL/min/kg
[1]
  EC50: > 1000 nM
[3]
  EC50: 0.14 nM

## CCCCC(NC(=O)[C@H](CCC(=O)O)NC(=O)[C@H](CC(=O)O)NC(=O)[C@H](CO)NC(=O)[C@H](Cc1ccccc1)NC(=O)[C@H](CO)NC(=O)CNC(=O)[C@H](CC(=O)O)NC(=O)CNC(=O)[C@@H](N)Cc1cnc[nH]1)C(=O)N[C@@H](CC(N)=O)C(=O)N[C@H](C(=O)N[C@H](C(=O)N[C@@H](CC(C)C)C(=O)N[C@@H](CC(=O)O)C(=O)NC(Cc1cccs1)C(=O)N[C@@H](CC(C)C)C(=O)N[C@@H](C)C(=O)N[C@@H](C)C(=O)N[C@@H](CCCNC(=N)N)C(=O)N[C@@H](CC(=O)O)C(=O)N[C@@H](Cc1ccccc1)C(=O)N[C@H](C(=O)N[C@@H](CC(N)=O)C(=O)N[C@@H](Cc1c[nH]c2ccccc12)C(=O)N[C@@H](CC(C)C)C(=O)N[C@H](C(=O)N[C@@H](CCC(N)=O)C(=O)N[C@H](C(=O)N[C@@H](CCCCN)C(N)=O)[C@@H](C)O)[C@@H](C)CC)[C@@H](C)CC)[C@@H](C)CC)[C@@H](C)O (stereo not given in full) (H-HGDGSFSDE[ξNle]NTILD[ξ2Thi]LAARDFINWLIQTK-NH2)
HEK293
  Ratio EC50: > 5000
[4]
  Activity: inactive
[5]
  clearance: 6.1 mL/min/kg
[1]
  EC50: > 1000 nM
[3]
  EC50: 0.2 nM

## CCCCC(NC(=O)[C@@H](CCC(=O)O)NC(=O)[C@@H](CC(=O)O)NC(=O)[C@@H](CO)NC(=O)[C@@H](Cc1ccccc1)NC(=O)[C@@H](CO)NC(=O)CNC(=O)[C@@H](CC(=O)O)NC(=O)CNC(=O)[C@@H](N)Cc1cnc[nH]1)C(=O)N[C@H](CC(N)=O)C(=O)N[C@@H](C(=O)N[C@@H](C(=O)N[C@H](CC(C)C)C(=O)N[C@H](CC(=O)O)C(=O)NC(Cc1cccc2ccccc12)C(=O)N[C@@H](CC(C)C)C(=O)N[C@@H](C)C(=O)N[C@@H](C)C(=O)N[C@@H](CCCNC(=N)N)C(=O)N[C@@H](CC(=O)O)C(=O)N[C@@H](Cc1ccccc1)C(=O)N[C@H](C(=O)N[C@@H](CC(N)=O)C(=O)N[C@H](Cc1c[nH]c2ccccc12)C(=O)N[C@H](CC(C)C)C(=O)N[C@@H](C(=O)N[C@H](CCC(N)=O)C(=O)N[C@@H](C(=O)N[C@@H](CCCCN)C(N)=O)[C@H](C)O)[C@@H](C)CC)[C@H](C)CC)[C@@H](C)CC)[C@H](C)O (stereo not given in full)
HEK293
  Ratio EC50: > 5200
[4]
  Activity: inactive

## CCCCC(NC(=O)[C@H](CCC(=O)O)NC(=O)[C@H](CC(=O)O)NC(=O)[C@H](CO)NC(=O)[C@H](Cc1ccccc1)NC(=O)[C@H](CO)NC(=O)CNC(=O)[C@H](CC(=O)O)NC(=O)CNC(=O)[C@@H](N)Cc1cnc[nH]1)C(=O)N[C@@H](CC(N)=O)C(=O)N[C@H](C(=O)N[C@H](C(=O)N[C@@H](CC(C)C)C(=O)N[C@@H](CC(=O)O)C(=O)N[C@@H](Cc1ccc(O)cc1)C(=O)N[C@@H](CC(C)C)C(=O)N[C@@H](C)C(=O)N[C@@H](C)C(=O)N[C@@H](CCCNC(=N)N)C(=O)N[C@@H](CC(=O)O)C(=O)N[C@@H](Cc1ccccc1)C(=O)N[C@H](C(=O)N[C@@H](CC(N)=O)C(=O)N[C@@H](Cc1c[nH]c2ccccc12)C(=O)N[C@@H](CC(C)C)C(=O)N[C@H](C(=O)N[C@@H](CCC(N)=O)C(=O)N[C@H](C(=O)N[C@@H](CCCCN)C(N)=O)[C@@H](C)O)[C@@H](C)CC)[C@@H](C)CC)[C@@H](C)CC)[C@@H](C)O (stereo not given in full) (H-HGDGSFSDE[ξNle]NTILDYLAARDFINWLIQTK-NH2)
HEK293
  Ratio EC50: > 9000
[4]
  Activity: inactive
[5]
  clearance: 1.2 mL/min/kg
[1]
  EC50: > 1000 nM
[3]
  EC50: 0.11 nM

## CCCCC(NC(=O)[C@H](CCC(=O)O)NC(=O)[C@H](CC(=O)O)NC(=O)[C@H](CO)NC(=O)[C@H](Cc1ccccc1)NC(=O)[C@H](CO)NC(=O)CNC(=O)[C@H](CC(=O)O)NC(=O)CNC(=O)[C@@H](N)Cc1cnc[nH]1)C(=O)N[C@@H](CC(N)=O)C(=O)N[C@H](C(=O)N[C@H](C(=O)N[C@@H](CC(C)C)C(=O)N[C@@H](CC(=O)O)C(=O)N[C@@H](Cc1cnc[nH]1)C(=O)N[C@@H](CC(C)C)C(=O)N[C@@H](C)C(=O)N[C@@H](C)C(=O)N[C@@H](CCCNC(=N)N)C(=O)N[C@@H](CC(=O)O)C(=O)N[C@@H](Cc1ccccc1)C(=O)N[C@H](C(=O)N[C@@H](CC(N)=O)C(=O)N[C@@H](Cc1c[nH]c2ccccc12)C(=O)N[C@@H](CC(C)C)C(=O)N[C@H](C(=O)N[C@@H](CCC(N)=O)C(=O)N[C@H](C(=O)N[C@@H](CCCCN)C(N)=O)[C@@H](C)O)[C@@H](C)CC)[C@@H](C)CC)[C@@H](C)CC)[C@@H](C)O (stereo not given in full) (H-HGDGSFSDE[ξNle]NTILDHLAARDFINWLIQTK-NH2)
HEK293
  Ratio EC50: > 2300
[4]
  Activity: inactive
[5]
  clearance: 0.13 mL/min/kg
[1]
  EC50: > 1000 nM
[3]
  EC50: 0.42 nM
